According to patent US8217073B2, “Pyrrole derivatives as therapeutic compounds” (Myrexis, Inc., priority 2005, dated 2012):
pIC50: −log10 of the molar value. “And” between values parts separate entries of the source, which are not always exact repeats. Equal entries are not always repeated. Where two headings read alike, the source gives them in different places.

How the values were obtained:
Aβ42 [1] = details: transgenic mouse model; cited from earlier work
COX = details: cited from earlier work
Aβ42 [2] = details: CHO cells; cited from earlier work
Aβ42 secretion = Aβ42 secretion by H4 cells expressing APP695, sandwich ELISA; assay type: cell-based, human; details: medium collected at 24 or 48 hours, several numbers = independent sets of assays; for pIC50: about 1 μM to about 100 μM; for inhibition at 100 µM / % Inhibition of Aβ42 Secretion @ 100 μM: test compound 100 μM vs DMSO control
Description: (§1) The present invention provides compositions and methods for lowering Aβ42 levels. To test whether compounds and compositions are capable of modulating Aβ levels in cultured cells, sandwich enzyme-linked immunosorbent assays (ELISAs) are employed to measure secreted Aβ (Aβ42 and/or Aβ40 levels). In this example, H4 cells expressing wide type APP695 are seeded at 200,000 cells per well in 6 well plates, and incubated at 37° C. with 5% CO2 overnight. Cells are treated with 1.5 ml medium containing vehicle (DMSO) or a test compound at 1.25 μM, 2.5 μM, 5.0 μM and 10.0 μM (as well as other concentration if desirable) for 24 hours or 48 hours. The supernatant from treated cells is collected into eppendorf tubes and frozen at −80° C. for future analysis.
(§2) The amyloid peptide standard is reconstituted and frozen samples are thawed. The samples and standards are diluted with appropriate diluents and the plate is washed 4 times with Working Wash Buffer and patted dry on a paper towel. 100 μL per well of peptide standards, controls, and dilutions of samples to be analyzed is added. The plate is incubated for 2 hours while shaking on an orbital plate shaker at RT. The plate is then washed 4 times with Working Wash Buffer and patted dry on a paper towel. Detection Antibody Solution is poured into a reservoir and 100 μL/well of Detection Antibody Solution is immediately added to the plate. The plate is incubated at RT for 2 hours while shaking and then washed four times with Working Wash Buffer and patted dry on a paper towel. Secondary Antibody Solution is then poured into a reservoir and 100 μL/well of Secondary Antibody Solution is immediately added to the plate. The plate is incubated at RT for 2 hours with shaking, washed 5 times with Working Wash Buffer, and patted dry on a paper towel.
(§3) 100 μL of stabilized chromogen is added to each well and the liquid in the wells begins to turn blue. The plate is incubated for 30 minutes at room temperature and in the dark. 100 μL of stop solution is added to each well and the plate is tapped gently to mix resulting in a change of solution color from blue to yellow. The absorbance of each well is read at 450 nm having blanked the plate reader against a chromogen blank composed of 100 μL each of stabilized chromogen and stop solution. The plate is read within 2 hours of adding the stop solution. The absorbance of the standards is plotted against the standard concentration and the concentrations of unknown samples and controls are calculated.
(§4) The present invention provides compositions and methods for lowering Aβ42 levels. To test whether compounds and compositions are capable of modulating Aβ levels, sandwich enzyme-linked immunosorbent assays (ELISAs) is employed to measure secreted Aβ42 and/or Aβ40 levels. In this example, H4 cells expressing wide type APP695 are seeded at 200,000 cells per well in 6 well plates, and incubated at 37° C. with 5% CO2 overnight. Cells are treated with 1.5 mL medium containing vehicle (DMSO) or a test compound at 1.25 μM, 2.5 μM, 5.0 μM and 10.0 μM concentration for 24 hours or 48 hours. The supernatant from treated cells is collected into eppendorf tubes and frozen at −80° C. for future analysis.
(§5) 130 μL per well of samples, standards, and blanks is added to a 96-well polypropylene plate. […] of samples, standards, and blanks from the polypropylene plate is added to the antibody-coated plates. The strip-holder with the appropriate number of strips is applied to the antibody-coated plates and the strips are covered with an adhesive sealer. The plate is then incubated 3 hours at room temperature while shaking on an orbital plate shaker.
(§6) The first antibody solution is prepared with Conjugate Diluent 1 at 1:100 ratio. Each well of the antibody-coated plates is washed 5 times with 400 μL washing solution and 100 μL of the prepared first antibody solution is added to each well. […]

Aβ40 secretion = Aβ40 secretion by H4 cells expressing APP695, sandwich ELISA; assay type: cell-based, human; details: medium collected at 24 or 48 hours, several numbers = independent sets of assays; for pIC50: about 1 μM to about 100 μM; for inhibition at 100 µM / % Inhibition of Aβ40 Secretion @ 100 μM: test compound 100 μM vs DMSO control
Description: as §1, §2, §3, §4, §5, §6

| SMILES | pIC50 (Aβ42 secretion; Homo sapiens) | pIC50 (Aβ40 secretion; Homo sapiens) | pIC50 (Aβ42 secretion) | pIC50 (Aβ40 secretion) | Aβ42 lowering (Aβ42 [1]) | inhibition of COX activity (COX) | Aβ42 lowering (Aβ42 [2]) | inhibition at 100 µM (Aβ42 secretion; Homo sapiens) | inhibition at 100 µM (Aβ40 secretion; Homo sapiens) | % Inhibition of Aβ42 Secretion @ 100 μM (Aβ42 secretion) | % Inhibition of Aβ40 Secretion @ 100 μM (Aβ40 secretion) |
| --- | --- | --- | --- | --- | --- | --- | --- | --- | --- | --- | --- |
| C[C@@H](C(=O)O)c1ccc(-c2ccccc2)c(F)c1 [R-Flurbiprofen] |  |  |  |  | lower Aβ42 | negligibly inhibits COX activity | lower Aβ42 |  |  |  |  |
| CCc1c(-c2ccccc2)cc(-c2ccccc2)n1-c1cccc(CCC(=O)O)c1 [Compound 12, 3-[3-(2-Ethyl-3,5-diphenyl-pyrrol-1-yl)-phenyl]-propionic acid] | 4.47 | < 4.00 |  |  |  |  |  | 85% | 27% |  |  |
| Cc1c(-c2ccccc2)cc(-c2ccccc2)n1-c1cccc(C(=O)O)c1 [Compound 2, 3-(2-Methyl-3,5-diphenyl-pyrrol-1-yl)-benzoic acid] | 4.32 | < 4.00 |  |  |  |  |  | 76% | 36% |  |  |
| Cc1c(-c2ccccc2)cc(-c2ccccc2)n1-c1cccc(CCC(=O)O)c1 [Compound 5, 3-[3-(2-Methyl-3,5-diphenyl-pyrrol-1-yl)-phenyl]-propionic acid] | 4.00 | < 4.00 |  |  |  |  |  | 55% | 31% |  |  |
| Cc1c(-c2cccc(C(F)(F)F)c2)cc(-c2ccccc2)n1-c1cccc(C(=O)O)c1 [Compound 8, 3-[2-Methyl-5-phenyl-3-(3-trifluoromethyl-phenyl)-pyrrol-1-yl]-benzoic acid] |  |  |  |  |  |  |  | 94% |  | 80% | 88% and 64% |
| Cc1c(-c2ccccc2)cc(-c2ccccc2)n1-c1ccc(Cl)c(C(=O)O)c1 [Compound 3, 2-Chloro-5-(2-methyl-3,5-diphenyl-pyrrol-1-yl)-benzoic acid] | 4.43 | 4.01 |  |  |  |  |  | 89% | 52% |  |  |
| COc1ccc(C(=O)O)cc1-n1c(-c2ccccc2)cc(-c2ccccc2)c1C [Compound 4, 4-Methoxy-3-(2-methyl-3,5-diphenyl-pyrrol-1-yl)-benzoic acid] | 4.54 | < 4.00 |  |  |  |  |  | 84% | 22% |  |  |
| O=C(O)CCCc1ccc(-n2cc(-c3ccccc3)cc2-c2ccccc2)cc1 [Compound 7, 4-[4-(2,4-Diphenyl-pyrrol-1-yl)-phenyl]-butyric acid] | 4.28 | < 4.00 |  |  |  |  |  | 76% | 7% |  |  |
| Cc1c(-c2cccc(C(F)(F)F)c2)cc(-c2ccccc2)n1-c1ccc(CCCC(=O)O)cc1 [Compound 10, 4-{4-[2-Methyl-5-phenyl-3-(3-trifluoromethyl-phenyl)-pyrrol-1-yl]-phenyl}-butyric acid] | 4.82 | 4.96 |  |  |  |  |  | 79% | 97% |  |  |
| Cc1c(-c2ccccc2)cc(-c2ccccc2)n1-c1ccc(CCCC(=O)O)cc1 [Compound 1, 4-[4-(2-Methyl-3,5-diphenyl-pyrrol-1-yl)-phenyl]-butyric acid] |  | < 4.00 |  | 4.17 |  |  |  |  |  | 101% and 99% and 78% |  |
| O=C(O)c1cccc(-n2cc(-c3ccccc3)cc2-c2ccccc2)c1 [Compound 6, 3-(2,4-Diphenyl-pyrrol-1-yl)-benzoic acid] | 4.52 | < 4.00 |  |  |  |  |  | 74% | 32% |  |  |

Second part, led by results:

| pIC50 (Aβ42 secretion; Homo sapiens) | pIC50 (Aβ40 secretion; Homo sapiens) | pIC50 (Aβ42 secretion) | pIC50 (Aβ40 secretion) | SMILES | Aβ42 lowering (Aβ42 [1]) | inhibition of COX activity (COX) | Aβ42 lowering (Aβ42 [2]) | inhibition at 100 µM (Aβ42 secretion; Homo sapiens) | inhibition at 100 µM (Aβ40 secretion; Homo sapiens) | % Inhibition of Aβ42 Secretion @ 100 μM (Aβ42 secretion) | % Inhibition of Aβ40 Secretion @ 100 μM (Aβ40 secretion) |
| --- | --- | --- | --- | --- | --- | --- | --- | --- | --- | --- | --- |
| 4.30 | 4.27 |  |  | Cc1c(-c2ccccc2)cc(-c2ccccc2)n1-c1ccc(C(=O)O)cc1 [Compound 39, 4-(2-Methyl-3,5-diphenyl-pyrrol-1-yl)-benzoic acid] |  |  |  | 86% | 92% |  |  |
| 5.05 | 4.52 | 5.15 | 4.49 | CC(C)(C)Cc1c(-c2ccccc2)cc(-c2ccccc2)n1-c1cccc(CCC(=O)O)c1 [Compound 37, 3-{3-[2-(2,2-Dimethyl-propyl)-3,5-diphenyl-pyrrol-1-yl]-phenyl}-propionic acid] |  |  |  | 100% | 98% | 99% | 104% |
| 5.00 | < 4.00 |  |  | Cc1c(-c2ccccc2)cc(-c2ccc(Cl)c(Cl)c2)n1-c1cccc(C(=O)O)c1 [Compound 17, 3-[5-(3,4-Dichloro-phenyl)-2-methyl-3-phenyl-pyrrol-1-yl]-benzoic acid] |  |  |  | 83% | 10% |  |  |
| 4.66 | 4.39 |  |  | CC(C)c1c(-c2ccccc2)cc(-c2ccccc2)n1-c1ccc(CCCC(=O)O)cc1 [Compound 32, 4-[4-(2-Isopropyl-3,5-diphenyl-pyrrol-1-yl)-phenyl]-butyric acid] |  |  |  | 98% | 103% |  |  |
| 4.92 | < 4.00 |  |  | CCc1c(-c2ccccc2)cc(-c2ccccc2)n1-c1ccc(CCCC(=O)O)cc1 [Compound 13, 4-[4-(2-Ethyl-3,5-diphenyl-pyrrol-1-yl)-phenyl]-butyric acid] |  |  |  | 83% | 14% |  |  |
| 5.00 | < 4.00 |  |  | Cc1c(-c2ccccc2)cc(-c2ccc(Cl)c(Cl)c2)n1-c1cccc(CCC(=O)O)c1 [Compound 18, 3-{3-[5-(3,4-Dichloro-phenyl)-2-methyl-3-phenyl-pyrrol-1-yl]-phenyl}-propionic acid] |  |  |  | 94% | 41% |  |  |
| 5.10 | 4.54 | 5.15 | 4.72 | CC(C)(C)Cc1c(-c2ccccc2)cc(-c2ccccc2)n1-c1cccc(C(=O)O)c1 [Compound 36, 3-[2-(2,2-Dimethyl-propyl)-3,5-diphenyl-pyrrol-1-yl]-benzoic acid] |  |  |  | 99% | 103% | 101% | 96% |
